Experimental data from the NIST ThermoML archive (doi:10.1021/acs.jced.6b00428).
± gives the expanded uncertainty stated by the source.

Experiment: refractive index (Na D-line) (dimensionless)
Details: 101.33 kPa, Liquid, Standard Abbe refractometry

## CC(=O)OC(C)C [1-methylethyl ethanoate]
293.15 K
  refractive index: 1.3771 ± 0.0024

## CCO [ethanol]
298.15 K
  refractive index: 1.3616 ± 0.0024

## O [water]
298.15 K
  refractive index: 1.3328 ± 0.0024
